# Results published in PubChem BioAssay (NCI).
#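 Compound exposure: 48 hours, 5 concentrations, 96-well plates. The concentration for 50% growth inhibition is given as GI50. TGI marks complete inhibition of growth.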
# Columns and labels:
# Test in all cases: DTP human tumour cell line panel, 48 h
# K-562 leukemia = test system: K-562 leukemia
# HCT-116 colon = test system: HCT-116 colon
# ACHN renal = test system: ACHN renal
# SK-MEL-28 melanoma = test system: SK-MEL-28 melanoma
# A549 NSCLC = test system: A549 NSCLC
# PC-3 prostate = test system: PC-3 prostate
# SK-MEL-2 melanoma = test system: SK-MEL-2 melanoma
# MOLT-4 leukemia = test system: MOLT-4 leukemia
# M14 melanoma = test system: M14 melanoma
# SK-MEL-5 melanoma = test system: SK-MEL-5 melanoma
# HCC-2998 colon = test system: HCC-2998 colon
# OVCAR-3 ovarian = test system: OVCAR-3 ovarian
# NCI-H522 lung = test system: NCI-H522 lung
# RPMI-8226 leukemia = test system: RPMI-8226 leukemia
# MCF7 breast = test system: MCF7 breast
# A498 renal = test system: A498 renal
# RXF 393 renal = test system: RXF 393 renal
# OVCAR-4 ovarian = test system: OVCAR-4 ovarian
# T-47D breast = test system: T-47D breast
# LOX IMVI melanoma = test system: LOX IMVI melanoma
# BT-549 breast = test system: BT-549 breast
# HOP-62 NSCLC = test system: HOP-62 NSCLC
# HCT-15 colon = test system: HCT-15 colon
# U251 CNS = test system: U251 CNS
# HOP-92 NSCLC = test system: HOP-92 NSCLC
# SR leukemia = test system: SR leukemia
# COLO 205 colon = test system: COLO 205 colon
# IGROV1 ovarian = test system: IGROV1 ovarian
# NCI-H460 lung = test system: NCI-H460 lung
# MDA-MB-435 = test system: MDA-MB-435
# NCI/ADR-RES ovarian = test system: NCI/ADR-RES ovarian
# HL-60(TB) leukemia = test system: HL-60(TB) leukemia
# OVCAR-8 ovarian = test system: OVCAR-8 ovarian
# SW-620 colon = test system: SW-620 colon
# KM12 colon = test system: KM12 colon
# UO-31 renal = test system: UO-31 renal
# SNB-19 CNS = test system: SNB-19 CNS
# EKVX NSCLC = test system: EKVX NSCLC
# UACC-257 melanoma = test system: UACC-257 melanoma
# SF-268 CNS = test system: SF-268 CNS
# NCI-H23 lung = test system: NCI-H23 lung
# MDA-MB-231 breast = test system: MDA-MB-231 breast
# SK-OV-3 ovarian = test system: SK-OV-3 ovarian
# SF-295 CNS = test system: SF-295 CNS
# CAKI-1 renal = test system: CAKI-1 renal
# CCRF-CEM leukemia = test system: CCRF-CEM leukemia
# OVCAR-5 ovarian = test system: OVCAR-5 ovarian
# UACC-62 melanoma = test system: UACC-62 melanoma
# HT29 colon = test system: HT29 colon
# MALME-3M melanoma = test system: MALME-3M melanoma
# HS 578T breast = test system: HS 578T breast
# 786-0 renal = test system: 786-0 renal
# SN12C renal = test system: SN12C renal
# SNB-75 CNS = test system: SNB-75 CNS
# NCI-H226 lung = test system: NCI-H226 lung
# DU-145 prostate = test system: DU-145 prostate
# TK-10 renal = test system: TK-10 renal
# MDA-MB-468 breast = test system: MDA-MB-468 breast
# SF-539 CNS = test system: SF-539 CNS
smiles,measurement,setting,value
O=C(COc1ccc(NC(=O)Nc2ccc(Cl)c(Cl)c2)cc1)N=Nc1c(O)[nH]c2ccc(Br)cc12,GI50,K-562 leukemia,1.26 µM
same,TGI,K-562 leukemia,6.47 µM
same,GI50,HCT-116 colon,0.166 µM
same,TGI,HCT-116 colon,0.369 µM
same,GI50,ACHN renal,2.94 µM
same,TGI,ACHN renal,9.12 µM
same,GI50,SK-MEL-28 melanoma,1.83 µM
same,TGI,SK-MEL-28 melanoma,3.43 µM
same,GI50,A549 NSCLC,2.06 µM
same,TGI,A549 NSCLC,5 µM
same,GI50,PC-3 prostate,1.15 µM
same,TGI,PC-3 prostate,3.44 µM
same,GI50,SK-MEL-2 melanoma,1.97 µM
same,TGI,SK-MEL-2 melanoma,4.27 µM
same,GI50,MOLT-4 leukemia,0.629 µM
same,TGI,MOLT-4 leukemia,2.69 µM
same,GI50,M14 melanoma,0.231 µM
same,TGI,M14 melanoma,0.634 µM
same,GI50,SK-MEL-5 melanoma,1.7 µM
same,TGI,SK-MEL-5 melanoma,3.09 µM
same,GI50,HCC-2998 colon,1.82 µM
same,TGI,HCC-2998 colon,3.89 µM
same,GI50,OVCAR-3 ovarian,1.08 µM
same,TGI,OVCAR-3 ovarian,3.13 µM
same,GI50,NCI-H522 lung,1.81 µM
same,TGI,NCI-H522 lung,3.62 µM
same,GI50,RPMI-8226 leukemia,2.19 µM
same,TGI,RPMI-8226 leukemia,6.37 µM
same,GI50,MCF7 breast,2.01 µM
same,TGI,MCF7 breast,4.71 µM
same,GI50,A498 renal,1.56 µM
same,TGI,A498 renal,3.79 µM
same,GI50,RXF 393 renal,1.52 µM
same,TGI,RXF 393 renal,3.04 µM
same,GI50,OVCAR-4 ovarian,1.9 µM
same,TGI,OVCAR-4 ovarian,4.1 µM
same,GI50,T-47D breast,1.96 µM
same,TGI,T-47D breast,4.57 µM
same,GI50,LOX IMVI melanoma,1.09 µM
same,TGI,LOX IMVI melanoma,2.3 µM
same,GI50,BT-549 breast,0.0288 µM
same,TGI,BT-549 breast,2.23 µM
same,GI50,HOP-62 NSCLC,2.03 µM
same,TGI,HOP-62 NSCLC,3.95 µM
same,GI50,HCT-15 colon,6.13 µM
same,TGI,HCT-15 colon,45.5 µM
same,GI50,U251 CNS,1.71 µM
same,TGI,U251 CNS,3.39 µM
same,GI50,HOP-92 NSCLC,1.93 µM
same,TGI,HOP-92 NSCLC,4.45 µM
same,GI50,SR leukemia,2.55 µM
same,TGI,SR leukemia,7.98 µM
same,GI50,COLO 205 colon,1.83 µM
same,TGI,COLO 205 colon,3.31 µM
same,GI50,IGROV1 ovarian,1.88 µM
same,TGI,IGROV1 ovarian,3.92 µM
same,GI50,NCI-H460 lung,1.6 µM
same,TGI,NCI-H460 lung,3.54 µM
same,GI50,MDA-MB-435,1.55 µM
same,TGI,MDA-MB-435,3.25 µM
same,GI50,NCI/ADR-RES ovarian,> 100 µM
same,TGI,NCI/ADR-RES ovarian,> 100 µM
same,GI50,HL-60(TB) leukemia,2.02 µM
same,TGI,HL-60(TB) leukemia,4.66 µM
same,GI50,OVCAR-8 ovarian,2.34 µM
same,TGI,OVCAR-8 ovarian,5.42 µM
same,GI50,SW-620 colon,1.46 µM
same,TGI,SW-620 colon,3.06 µM
same,GI50,KM12 colon,1.95 µM
same,TGI,KM12 colon,4.12 µM
same,GI50,UO-31 renal,11.5 µM
same,TGI,UO-31 renal,45.9 µM
same,GI50,SNB-19 CNS,2.68 µM
same,TGI,SNB-19 CNS,8.42 µM
same,GI50,EKVX NSCLC,2.37 µM
same,TGI,EKVX NSCLC,7.06 µM
same,GI50,UACC-257 melanoma,1.79 µM
same,TGI,UACC-257 melanoma,3.56 µM
same,GI50,SF-268 CNS,1.63 µM
same,TGI,SF-268 CNS,5.15 µM
same,GI50,NCI-H23 lung,1.99 µM
same,TGI,NCI-H23 lung,3.99 µM
same,GI50,MDA-MB-231 breast,1.81 µM
same,TGI,MDA-MB-231 breast,3.35 µM
same,GI50,SK-OV-3 ovarian,2.08 µM
same,TGI,SK-OV-3 ovarian,4.29 µM
same,GI50,SF-295 CNS,1.63 µM
same,TGI,SF-295 CNS,3.2 µM
same,GI50,CAKI-1 renal,2.05 µM
same,TGI,CAKI-1 renal,4.3 µM
same,GI50,CCRF-CEM leukemia,0.812 µM
same,TGI,CCRF-CEM leukemia,6.13 µM
same,GI50,OVCAR-5 ovarian,1.82 µM
same,TGI,OVCAR-5 ovarian,3.89 µM
same,GI50,UACC-62 melanoma,1.85 µM
same,TGI,UACC-62 melanoma,3.77 µM
same,GI50,HT29 colon,1.86 µM
same,TGI,HT29 colon,3.78 µM
same,GI50,MALME-3M melanoma,1.64 µM
same,TGI,MALME-3M melanoma,3.03 µM
same,GI50,HS 578T breast,2.25 µM
same,TGI,HS 578T breast,6.71 µM
same,TGI,786-0 renal,0.92 µM
same,GI50,SN12C renal,1.82 µM
same,TGI,SN12C renal,3.45 µM
same,GI50,SNB-75 CNS,1.33 µM
same,TGI,SNB-75 CNS,2.84 µM
same,GI50,NCI-H226 lung,1.98 µM
same,TGI,NCI-H226 lung,3.86 µM
same,GI50,DU-145 prostate,3.07 µM
same,TGI,DU-145 prostate,9.52 µM
same,GI50,TK-10 renal,2.46 µM
same,TGI,TK-10 renal,7.79 µM
same,GI50,MDA-MB-468 breast,1.75 µM
same,TGI,MDA-MB-468 breast,3.46 µM
same,GI50,SF-539 CNS,1.66 µM
same,TGI,SF-539 CNS,3.12 µM
